One data set deals with Fadu cells. Briefly: CellTiter-Glo luminescent cell viability assay, Fadu. As to conditions: 72 h, 72 h, mean ± SD, n = 2; for viability at 2.8 µM / viability at 8.3 µM / viability at 25 µM: Homo sapiens, FaDu; for viability at 2.8 µM: read-out: Cell Viability (% of Control) 2.8 µM, Fadu; for viability at 8.3 µM: read-out: Cell Viability (% of Control) 8.3 µM, Fadu; for viability at 25 µM: read-out: Cell Viability (% of Control) 25 µM, Fadu; for Cell Viability (% of Control) 2.8 µM / Cell Viability (% of Control) 8.3 µM / Cell Viability (% of Control) 25 µM: Fadu. For orientation: Cellular ATP, detected with luciferase, serves as a proxy for viable cell number.

The subject of a further data set is PANC-1 cells. The data set is described as follows: CellTiter-Glo luminescent cell viability assay, PANC-1. As to conditions: 72 h, mean ± SD, n = 2; for viability at 2.8 µM / viability at 8.3 µM / viability at 25 µM: Homo sapiens, PANC-1, 72 h; for viability at 2.8 µM: read-out: Cell Viability (% of Control) 2.8 µM, PANC-1; for viability at 8.3 µM: read-out: Cell Viability (% of Control) 8.3 µM, PANC-1; for viability at 25 µM: read-out: Cell Viability (% of Control) 25 µM, PANC-1; for Cell Viability (% of Control) 2.8 µM / Cell Viability (% of Control) 8.3 µM / Cell Viability (% of Control) 25 µM: PANC-1.

Each structure is given as a SMILES string. Read-outs that look alike come from different tables or passages of the source.

This is an account of results in article PMC11642016 (International Journal of Molecular Sciences, 2024).

The viability is a read-out of living cells in per cent, often relative to untreated cells.

Experimental for PANC-1 cells: Primary fibroblast cultures were prepared from human skin biopsies and maintained in DMEM supplemented with 10% FBS, 1% penicillin-streptomycin, and 1% MEM Non-Essential Amino Acids Solution (Thermo Fisher Scientific). […] All cell lines were cultured in a humidified atmosphere at 37 °C and 5% CO2, passaged twice a week, and the experiments were performed on cells between passage 5 and 15. The cell lines were routinely screened for the absence of mycoplasma infection (DAPI staining).
The effects of the synthesized compounds on cell viability were measured using the CellTiter-Glo® luminescent cell viability assay (Promega, Madison, WI, USA), according to the manufacturer’s instructions. Briefly, cells were seeded onto a flat-bottomed, white 96-well plate (BRANDplates, cat. no.: 781965)), with the following densities: PANC-1: 750 cells/well, Fadu: 2000 cells/well, primary fibroblasts: 2000 cells/well, HEK293T WT: 1000 cells/well, HEK293T CLPP^−/−: 2500 cells/well. After seeding, cells were incubated for a further 48 h before treatment. Cells were treated with the compounds for 72 h. Three concentrations (25.0 µM; 8.3 µM; 2.8 µM) were applied during the initial cell viability screening, while for the determination of dose–response curves, 1.5-fold serially diluted compound concentrations were applied (range: 26 µM–0.7 µM). After treatment, the luminescence signal was recorded using a microplate reader (BioTek Synergy 2 Multi-Mode Reader, BioTek, Winooski, VT, USA).
Data analysis was performed using GraphPad Prism 9.5.0 software (GraphPad Software, San Diego, CA, USA). […] The dose–response curves were generated by four-parameter nonlinear regression, and the IC50 values were determined as the means ± SEM of the best-fit values of 3 independent measurements. The R^2 values were consistently above 0.93, indicating a strong fit of the model to the experimental data (Supplementary S.89). […] Dunnett’s post hoc test was applied to adjust for multiple comparisons, minimizing the likelihood of false positive results. Assumptions for ANOVA, including normality (assessed via QQ plots) and homogeneity of variance (tested using the Brown–Forsythe test), were verified. The following significance levels were applied: * p < 0.05, ** p < 0.01, *** p < 0.001, **** p < 0.0001. […] The tumor selectivity of the compounds was quantitatively characterized by the selectivity index (SI). This parameter was calculated as the ratio of the average best-fit IC50 value for primary fibroblasts and the best-fit IC50 value for the corresponding tumor cells (PANC-1 or Fadu).

Consider `NCC#Cc1cccc(CN2C(=O)C3=C(CCN(Cc4ccc(C(=O)Nc5ccccc5)cc4)C3)N3CCN=C23)c1` [33b], for which, in the data set with Fadu cells (second-set screening), the viability at 2.8 µM was 120 ± 9%, the viability at 8.3 µM was found to be 115 ± 6% and the viability at 25 µM turned out to be 80 ± 11%. In the data set with PANC-1 cells (second-set screening), the viability at 2.8 µM was determined as 102 ± 9%, the viability at 8.3 µM worked out at 109 ± 5% and the viability at 25 µM is 71 ± 32%.
In the case of `O=C1C2=C(CCN(Cc3cccc(-n4cc(-[c-]5cccc5)nn4)c3)C2)N2CCN=C2N1Cc1ccc(C#CCO)cc1.[Fe+2].c1cc[cH-]c1` [3c], in the data set with Fadu cells (first-set screening), the “Cell Viability (% of Control) 2.8 µM” value was 103 ± 9 % of Control, the “Cell Viability (% of Control) 8.3 µM” value is given as 99 ± 2 % of Control and the “Cell Viability (% of Control) 25 µM” value is on record as 85 ± 5 % of Control. In the data set with PANC-1 cells (first-set screening), the “Cell Viability (% of Control) 2.8 µM” value is given as 100 ± 3 % of Control, the “Cell Viability (% of Control) 8.3 µM” value is reported as 98 ± 1 % of Control and the “Cell Viability (% of Control) 25 µM” value is 98 ± 1 % of Control.
For the compound `CN(C)CC#Cc1cccc(CN2C(=O)C3=C(CCN(Cc4ccc(-n5cc(-c6ccccc6)nn5)cc4)C3)N3CCN=C23)c1` [39b], in the data set on Fadu cells (second-set screening), the viability at 2.8 µM was 96 ± 4%, the viability at 8.3 µM stood at 15 ± 8% and the viability at 25 µM was 1 ± 1%. Besides, in the data set with PANC-1 cells (second-set screening), the viability at 2.8 µM amounted to 107 ± 3%, the viability at 8.3 µM was 25 ± 20% and the viability at 25 µM came to 2 ± 3%.
For `O=C1C2=C(CCN(Cc3ccc(-n4cc(-c5ccccc5)nn4)cc3)C2)N2CCN=C2N1Cc1ccc(C#CCO)cc1` [1c], in the data set with Fadu cells (first-set screening), the viability at 2.8 µM is 79%, the viability at 8.3 µM was 71% and the viability at 25 µM turned out to be 64 ± 2%. In the data set with PANC-1 cells (first-set screening), the viability at 2.8 µM was 95 ± 3%, the viability at 8.3 µM was 87 ± 2% and the viability at 25 µM amounted to 88 ± 6%.
Turning to `NCC#Cc1cccc(CN2C(=O)C3=C(CCN(Cc4ccc(-n5cc(-c6cc(F)cc(F)c6)nn5)cc4)C3)N3CCN=C23)c1` [36c], in the data set on Fadu cells (second-set screening), the viability at 2.8 µM was 111 ± 10%, the viability at 8.3 µM stood at 5 ± 5% and the viability at 25 µM came to 0%. For the same compound, in the data set on PANC-1 cells (second-set screening), the viability at 2.8 µM is 111 ± 8%, the viability at 8.3 µM worked out at 0% and the viability at 25 µM worked out at 0%.
As for `NCC#Cc1ccc(CN2C(=O)C3=C(CCN(Cc4cccc(-n5cc(-[c-]6cccc6)nn5)c4)C3)N3CCN=C23)cc1.[Fe+2].c1cc[cH-]c1` [3a], in the data set on Fadu cells (first-set screening), the “Cell Viability (% of Control) 2.8 µM” value was 104 ± 5 % of Control, the “Cell Viability (% of Control) 8.3 µM” value is 100 ± 6 % of Control and the “Cell Viability (% of Control) 25 µM” value is listed as 0 ± 0 % of Control. In addition, in the data set on PANC-1 cells (first-set screening), the “Cell Viability (% of Control) 2.8 µM” value was 101 ± 7 % of Control, the “Cell Viability (% of Control) 8.3 µM” value is on record as 88 ± 0 % of Control and the “Cell Viability (% of Control) 25 µM” value is 0 ± 0 % of Control.
On to `NCC#Cc1cccc(CN2C(=O)C3=C(CCN(Cc4ccc(C(=O)N[c-]5cccc5)cc4)C3)N3CCN=C23)c1.[Fe+2].c1cc[cH-]c1` [33a], for which, in the data set on Fadu cells (second-set screening), the “Cell Viability (% of Control) 2.8 µM” value is recorded as 99 ± 2 % of Control, the “Cell Viability (% of Control) 8.3 µM” value is 93 ± 2 % of Control and the “Cell Viability (% of Control) 25 µM” value is on record as 9 ± 8 % of Control. In addition, in the data set on PANC-1 cells (second-set screening), the “Cell Viability (% of Control) 2.8 µM” value was 102 ± 9 % of Control, the “Cell Viability (% of Control) 8.3 µM” value was 107 ± 9 % of Control and the “Cell Viability (% of Control) 25 µM” value is on record as 4 ± 5 % of Control.
In the case of `O=C1C2=C(CCN(Cc3ccc(-n4cc(-[c-]5cccc5)nn4)cc3)C2)N2CCN=C2N1Cc1ccc(C#CCO)cc1.[Fe+2].c1cc[cH-]c1` [1b], in the data set on Fadu cells (first-set screening), the “Cell Viability (% of Control) 2.8 µM” value is listed as 88 ± 4 % of Control, the “Cell Viability (% of Control) 8.3 µM” value is recorded as 83 ± 0 % of Control and the “Cell Viability (% of Control) 25 µM” value is on record as 68 ± 3 % of Control. In the data set on PANC-1 cells (first-set screening), the “Cell Viability (% of Control) 2.8 µM” value is 92 ± 0 % of Control, the “Cell Viability (% of Control) 8.3 µM” value was 93 ± 3 % of Control and the “Cell Viability (% of Control) 25 µM” value is reported as 95 ± 2 % of Control.
Take `O=C1C2=C(CCN(Cc3ccc(-n4cc(-c5ccccc5)nn4)cc3)C2)N2CCN=C2N1Cc1cccc(C#CCN2CCOCC2)c1` [42b]: in the data set on Fadu cells (second-set screening), the viability at 2.8 µM was 108 ± 7%, the viability at 8.3 µM worked out at 91 ± 12% and the viability at 25 µM was 13 ± 6%. Moreover, in the data set on PANC-1 cells (second-set screening), the viability at 2.8 µM stood at 94 ± 5%, the viability at 8.3 µM stood at 82 ± 5% and the viability at 25 µM turned out to be 59 ± 3%.
As to `CN1CCN(CC#Cc2cccc(CN3C(=O)C4=C(CCN(Cc5ccc(-n6cc(-c7ccccc7)nn6)cc5)C4)N4CCN=C34)c2)CC1` [41b], in the data set with Fadu cells (second-set screening), the viability at 2.8 µM is 106 ± 1%, the viability at 8.3 µM stood at 30 ± 28% and the viability at 25 µM is 3 ± 1%. Moreover, in the data set on PANC-1 cells (second-set screening), the viability at 2.8 µM is 110 ± 6%, the viability at 8.3 µM is 0% and the viability at 25 µM worked out at 0%.
In the case of `C=CC(=O)Nc1cccc(-c2cn(-c3ccc(CN4CCC5=C(C4)C(=O)N(Cc4ccc(C#CCN)cc4)C4=NCCN45)cc3)nn2)c1` [1e], in the data set on Fadu cells (first-set screening), the viability at 2.8 µM was found to be 96 ± 6%, the viability at 8.3 µM was 59 ± 4% and the viability at 25 µM is 69 ± 2%. Also, in the data set with PANC-1 cells (first-set screening), the viability at 2.8 µM worked out at 101 ± 7%, the viability at 8.3 µM was 91 ± 1% and the viability at 25 µM stood at 102%.
Take `NCC#Cc1cccc(CN2C(=O)C3=C(CCN(Cc4ccc(-n5cc(-c6ccc(F)cc6)nn5)cc4)C3)N3CCN=C23)c1` [36b]: in the data set on Fadu cells (second-set screening), the viability at 2.8 µM is 114 ± 7%, the viability at 8.3 µM came to 1 ± 1% and the viability at 25 µM is 0%. Also, in the data set on PANC-1 cells (second-set screening), the viability at 2.8 µM worked out at 116 ± 7%, the viability at 8.3 µM came to 0% and the viability at 25 µM turned out to be 0%.
For `NCc1cccc(CN2C(=O)C3=C(CCN(Cc4ccc(-n5cc(-[c-]6cccc6)nn5)cc4)C3)N3CCN=C23)c1.[Fe+2].c1cc[cH-]c1` [37a], in the data set with Fadu cells (second-set screening), the “Cell Viability (% of Control) 2.8 µM” value is listed as 106 ± 10 % of Control, the “Cell Viability (% of Control) 8.3 µM” value is given as 70 ± 20 % of Control and the “Cell Viability (% of Control) 25 µM” value was 0 ± 0 % of Control. For the same compound, in the data set on PANC-1 cells (second-set screening), the “Cell Viability (% of Control) 2.8 µM” value was 118 ± 4 % of Control, the “Cell Viability (% of Control) 8.3 µM” value is listed as 123 ± 5 % of Control and the “Cell Viability (% of Control) 25 µM” value was 16 ± 8 % of Control.
As to `O=C1C2=C(CCN(Cc3ccc(-n4cc(-[c-]5cccc5)nn4)cc3)C2)N2CCN=C2N1Cc1cccc(C#CCN2CCOCC2)c1.[Fe+2].c1cc[cH-]c1` [42a], in the data set on Fadu cells (second-set screening), the “Cell Viability (% of Control) 2.8 µM” value was 121 ± 3 % of Control, the “Cell Viability (% of Control) 8.3 µM” value is 112 ± 11 % of Control and the “Cell Viability (% of Control) 25 µM” value was 55 ± 12 % of Control. Further, in the data set with PANC-1 cells (second-set screening), the “Cell Viability (% of Control) 2.8 µM” value is 132 ± 4 % of Control, the “Cell Viability (% of Control) 8.3 µM” value is on record as 75 ± 31 % of Control and the “Cell Viability (% of Control) 25 µM” value was 58 ± 36 % of Control.
As to `NCC#Cc1cccc(CN2C(=O)C3=C(CCN(Cc4ccc(NC(=O)c5ccccc5)cc4)C3)N3CCN=C23)c1` [23b], in the data set on Fadu cells (second-set screening), the viability at 2.8 µM stood at 117 ± 11%, the viability at 8.3 µM was 108 ± 7% and the viability at 25 µM amounted to 77 ± 6%. Also, in the data set with PANC-1 cells (second-set screening), the viability at 2.8 µM worked out at 113 ± 15%, the viability at 8.3 µM stood at 106 ± 5% and the viability at 25 µM amounted to 47 ± 39%.
For the compound `Nc1cccc(-c2cn(-c3ccc(CN4CCC5=C(C4)C(=O)N(Cc4ccc(C#CCO)cc4)C4=NCCN45)cc3)nn2)c1` [1d], in the data set on Fadu cells (first-set screening), the viability at 2.8 µM stood at 99 ± 9%, the viability at 8.3 µM was 96 ± 7% and the viability at 25 µM was 84 ± 4%. Besides, in the data set with PANC-1 cells (first-set screening), the viability at 2.8 µM worked out at 99 ± 3%, the viability at 8.3 µM was 101 ± 3% and the viability at 25 µM is 100 ± 5%.
Regarding `O=C1C2=C(CCN(Cc3ccc(-n4cc(-[c-]5cccc5)nn4)cc3)C2)N2CCN=C2N1Cc1cccc(C#CCO)c1.[Fe+2].c1cc[cH-]c1` [2c], in the data set with Fadu cells (first-set screening), the “Cell Viability (% of Control) 2.8 µM” value is listed as 79 ± 2 % of Control, the “Cell Viability (% of Control) 8.3 µM” value is recorded as 76 ± 4 % of Control and the “Cell Viability (% of Control) 25 µM” value is recorded as 65 ± 0 % of Control. In the data set with PANC-1 cells (first-set screening), the “Cell Viability (% of Control) 2.8 µM” value is 94 ± 2 % of Control, the “Cell Viability (% of Control) 8.3 µM” value is 95 ± 2 % of Control and the “Cell Viability (% of Control) 25 µM” value is recorded as 97 ± 2 % of Control.
